Laboratory results as given in US5079257A, “Indoloquinone compounds” (priority 1986, dated 1992).
Converted amounts (≈) assume the structure as drawn. Like-named read-outs stand apart in the source and are kept apart here.

How the values were obtained:
[1] = test system: T 24 cells; bladder carcinoma; assay: In vitro panel of human tumour lines (TNO): T 24; assay type: cell-based; settings: about 72 hours; also: key: -: no inhibition of cell growth; +: total cell-kill
Outline: (§1)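 Cells (5×10^4/ml, Dulbecco's medium + 10% FCS) grafted 48 h, then continuously exposed to compound (Hanks'/ethanol, final ethanol <1%) for about 72 h at 37°C, 10% CO2. Crystal violet fixation/staining; inhibiting concentration estimated qualitatively over increasing doses.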

[2] = test system: L1210 cells; assay: L1210 activity (bioliquid assay), cytotoxicity; assay type: cell-based; settings: Mus musculus
Outline: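 Suspension culture in RPMI with 15% FCS and 2-mercaptoethanol (60 μmol). Continuous compound exposure for 48 hours at 37° C under 5% CO2 in humidified air. Cell numbers then counted on an electronic microcell counter.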

[3] = test system: IgR37 cells melanoma; assay: In vitro panel of human tumour lines (TNO): IgR-37; assay type: cell-based; settings: about 72 hours; also: key: -: no inhibition of cell growth; +: total cell-kill
Outline: as §1

[4] = in vivo; parameters: species or system mice; settings: mouse, IP, single dose, suspension in carboxymethyl cellulose (2%)
Protocol: The acute toxicity experiments were carried out with male C5 Black/Rij X CBA/Rij Fl hybrid mice at TNO, Rijswijk. The drugs were administrated IP as suspensions in carboxymethyl cellulose (2%) as a single dose at the first day.

[5] = test system: WiDr cells; colon tumour; assay: In vitro panel of human tumour lines (TNO): WiDr; assay type: cell-based; settings: about 72 hours; also: key: -: no inhibition of cell growth; +: total cell-kill
Outline: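 Cells in Dulbecco's medium with 10% foetal calf serum were seeded 48 h, then exposed continuously to increasing compound concentrations (final ethanol <1%) for about 72 h at 37° in 10% CO2. Crystal violet staining after fixation; inhibiting concentration estimated qualitatively.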

[6] = test system: A 204 cells; rhabdomyosarcoma; assay: In vitro panel of human tumour lines (TNO): A 204; assay type: cell-based; settings: about 72 hours; also: key: -: no inhibition of cell growth; +: total cell-kill
Outline: as §1

[7] = test system: Renal tumour line; assay: Colony inhibition in vitro, continuous drug exposure (Freiburg); assay type: cell-based; settings: Homo sapiens, read-out: colony formation treated/control (T/C), Renal; for activity at 1 µg/mL: 1.0 μg/ml
Protocol: (§2) Three indoloquinones were tested at the University of Freiburg with respect to their in vitro inhibition of colony formation of the following five human tumour cell lines: lung-NSCLC, breast, renal and two colon lines.

[8] = test system: Mammary (breast) tumour line; assay: as above; assay type: cell-based; settings: Homo sapiens, read-out: colony formation treated/control (T/C), Mammary; for activity at 1 µg/mL: 1.0 μg/ml
Protocol: as §2

[9] = test system: Colon 2 tumour line; assay: as above; assay type: cell-based; settings: Homo sapiens, read-out: colony formation treated/control (T/C), Colon 2; for activity at 1 µg/mL: 1.0 μg/ml
Protocol: as §2

[10] = test system: Colon 1 tumour line; assay: as above; assay type: cell-based; settings: Homo sapiens, read-out: colony formation treated/control (T/C), Colon 1; for activity at 1 µg/mL: 1.0 μg/ml
Protocol: as §2

[11] = test system: P 388 tumour cells; assay: In vivo P388 experiments (Brussels); parameters: species or system mice; settings: for MAX T/C: days 1 to 5
Protocol: These experiments were carried out at the Institute Jules Bordet, Brussels, on CDF, female mice. The mice were inoculated intraperitoneally (IP) with 1×10^6 P 388 tumour cells. After 24 hours, the compounds were administrated as suspensions in "Tween-80" or using saline as vehicle. Six mice were used at each dose of the compound, given on days 1 to 5 and eighteen control mice were injected with saline.

[12] = test system: L1210; assay: In vivo L1210 experiments (TNO Rijswijk); parameters: species or system mice
Protocol: The in vivo L1210 experiments were carried out in male Balb/c X DBA.2 Fl hybrid mice at TNO, Rijswijk.
In these experiments also, the drugs were administered IP as suspensions in carboxymethyl cellulose […] as a single dose at the first day.

[13] = L1210, Table I, bioliquid assay, 48 hours, read-out: ID-50 L1210

Compound | in vitro activity score, T 24 ([1]; 0.01 μg/ml) | in vitro activity score, T 24 ([1]; 0.1 μg/ml) | IC50 [2, 13] [µg/mL] | in vitro activity score, IgR-37 ([3]; 0.01 μg/ml) | in vitro activity score, IgR-37 ([3]; 0.1 μg/ml) | in vitro activity score, IgR-37 ([3]; 10 μg/ml) | LD50 [4] [mg/kg] | in vitro activity score, WiDr ([5]; 0.01 μg/ml) | in vitro activity score, WiDr ([5]; 0.1 μg/ml) | in vitro activity score, WiDr ([5]; 1.0 μg/ml) | in vitro activity score, WiDr ([5]; 10 μg/ml) | in vitro activity score, A 204 ([6]; 0.01 μg/ml) | in vitro activity score, A 204 ([6]; 0.1 μg/ml) | in vitro activity score, A 204 ([6]; 10 μg/ml) | activity at 0.1 µg/mL ([7]; 0.1 μg/ml) [%] | activity at 1 µg/mL [7] [%] | in vitro activity score, T 24 ([1]; 1.0 μg/ml) | in vitro activity score, T 24 ([1]; 10 μg/ml) | in vitro activity score, IgR-37 ([3]; 1.0 μg/ml) | in vitro activity score, A 204 ([6]; 1.0 μg/ml) | other results
COC1=CC(=O)c2c(c(COC(C)=O)c(/C=C/COC(C)=O)n2C)C1=O [E.O. 1, 3-Acetoxymethyl-5-methoxy-1-methyl-2-[1H-indole-4,7-dione]prop-β-en-α-yl acetate] | - | - | 2.3 | - | - | + | 10 to 30 | - | - | - | + | - | - | + | 68 | 0 |  |  |  |  | activity at 0.01 µg/mL ([8]; 0.01 μg/ml): 99%; activity at 0.1 µg/mL ([8]; 0.1 μg/ml): 0%; activity at 1 µg/mL [8]: 0%; activity at 0.01 µg/mL ([9]; 0.01 μg/ml): 71%; activity at 0.1 µg/mL ([9]; 0.1 μg/ml): 24%; activity at 1 µg/mL [9]: 3%; activity at 0.01 µg/mL ([10]; 0.01 μg/ml): 108%; activity at 0.1 µg/mL ([10]; 0.1 μg/ml): 37%; activity at 1 µg/mL [10]: 21%; MAX T/C ([11]; 75 mg/kg): 105%
CC(=O)OC/C=C/c1c(COC(C)=O)c2c(n1C)C(=O)C=C(N1CC1)C2=O [E.O. 4, 3-Acetoxymethyl-5-aziridino-1-methyl-2-[1H-indole-4,7-dione]prop-β-en-α-yl acetate] | - | - |  | - | - | + |  | - | - |  | + | - | - | + |  |  | + | + | + | + | % T/C ([12]; 15 mg/kg IP single dose): tox.; % T/C ([12]; 25, 30 mg/kg IP single dose): tox.; response vs control in vivo at 20 mg/kg ([12]; Mus musculus, L1210, ip, read-out: % T/C): 100%; IC50 ([2]; L1210, 48 h, read-out: ID-50 L1210, Table VIII): 1.6 µg/mL; activity at 0.001 µg/mL [7]: 88%; activity at 0.01 µg/mL [7]: 88%; activity at 0.1 µg/mL [7]: 41%; activity at 0.001 µg/mL [8]: 95%; activity at 0.01 µg/mL [8]: 46%; activity at 0.1 µg/mL [8]: 0%; activity at 0.001 µg/mL [9]: 86%; activity at 0.01 µg/mL [9]: 70%; activity at 0.1 µg/mL [9]: 11%; activity at 0.001 µg/mL [10]: 51%; activity at 0.01 µg/mL [10]: 56%; activity at 0.1 µg/mL [10]: 56%; MAX T/C ([11]; 10 mg/kg): 135%; T/C at the optimal dose ([11]; optimal dose): ~130%
Cn1c(/C=C/CO)c(CO)c2c1C(=O)C=C(N1CC1)C2=O [E.O. 9, 5-Aziridino-3-hydroxymethyl-1-methyl-2-[1H-indole-4,7-dione]prop-β-en-α-ol] | - | + |  | + | + | + | 10 | - | + | + | + | - | + | + | 8 | 0 | + | + | + | + | % T/C ([12]; 6, 8, 10 mg/kg IP single dose): tox.; response vs control in vivo at 2 mg/kg ([12]; Mus musculus, L1210, 2 mg/kg IP single dose, read-out: % T/C): 144%; response vs control in vivo at 4 mg/kg ([12]; Mus musculus, L1210, 4 mg/kg IP single dose, read-out: % T/C): 100%; IC50 ([2]; L1210, 48 h, Table VIII, read-out: ID-50 L1210): 0.46 µg/mL (≈ 1.6 µM); activity at 0.01 µg/mL ([7]; 0.01 μg/ml): 123%; activity at 0.01 µg/mL ([8]; 0.01 μg/ml): 38%; activity at 0.1 µg/mL ([8]; 0.1 μg/ml): 2%; activity at 1 µg/mL [8]: 0%; activity at 0.01 µg/mL ([9]; 0.01 μg/ml): 136%; activity at 0.1 µg/mL ([9]; 0.1 μg/ml): 20%; activity at 1 µg/mL [9]: 1%; activity at 0.01 µg/mL ([10]; 0.01 μg/ml): 51%; activity at 0.1 µg/mL ([10]; 0.1 μg/ml): 47%; activity at 1 µg/mL [10]: 9%; MAX T/C ([11]; 1.5 mg/kg): 106%
COC(=O)OC/C=C/c1c(COC(=O)OC)c2c(n1C)C(=O)C=C(OC)C2=O [E.O. 2, Methyl 5-methoxy-3-methoxycarbonyloxymethyl-1-methyl-2-[1H-indole-4,7 dione]prop-β-en-α-yl carbonate] | - | - | 0.5 (≈ 1.27 µM) | - | - | + | 30 to 100 | - | - | - | + | - | - | + |  |  | - | + | - | - | % T/C ([12]; 80 mg/kg IP single dose): tox.; response vs control in vivo at 30 mg/kg ([12]; Mus musculus, L1210, 30 mg/kg IP single dose, read-out: % T/C): 100%; response vs control in vivo at 40 mg/kg ([12]; Mus musculus, L1210, 40 mg/kg IP single dose, read-out: % T/C): 113%; response vs control in vivo at 60 mg/kg ([12]; Mus musculus, L1210, 60 mg/kg IP single dose, read-out: % T/C): 100%; MAX T/C ([11]; 10 mg/kg): 120%
